What was measured:
human CYP11B1 = human CYP11B1 (Homo sapiens (Human), UniProt P15538); test: V79-Human-CYP11B1 cell assay; format: cell-based; conditions: V79 cells stably expressing human CYP11B1; 250 nM 11-deoxycortisol substrate; cortisol by HTRF
Method: (§1) Methods for V79-Human-CYP11B2 and V79-Human-CYP11B1 Assays: V79 cell lines stably expressing the either the human CYP11B2 or the human CYP11B1 enzyme were generated using a standard transfection protocol. V79 cells were transfected with plasmids pTriEx3-Hygro-hCyp11B2 or pTriEx3-Hygro-hCyp11B1 using Lipofectamine2000 reagent. V79 cells that stably express the human CYP11B2 or human CYP11B1 enzyme were selected for and maintained in DMEM supplemented with 10% FBS and 400 µg/mL hygromycin for ˜2 weeks. Single cell clones were generated by infinite dilution in DMEM supplemented with 10% FBS and 400 µg/mL hygromycin until single colonies were obtained. Clones V79-hCYP11B2-CLE9 and V79-hCYP11B1-8CL7, were determined to produce the most aldosterone and cortisol, respectively, and were selected for inhibitor screening. For testing of inhibitors, cells were harvested at 80% confluency with 0.05% Trypsan-EDTA, washed once in PBS, and reconstituted in DMEM+0.1% BSA media at a cell concentration of 600,000 cells/mL for the CYP11B2 assay and 280,000 cells/ml for the CYP11B1 assay. 25 μL of cells were added to a 384 well tissue culture treated plate and mixed with 0.3 μL of inhibitor or DMSO (1% final DMSO concentration) for 1 hour at 37° C., 5% CO2. After pre-incubation with inhibitor, the reaction was initiated by adding 5 μL of substrate (final concentration of 125 nM 11-deoxycorticosterone for the CYP11B2 assay or 250 nM 11-deoxycortisol for the CYP11B1 assay). The reaction was carried out for 3 hours at 37° C., 5% CO2 and was stopped by harvesting the supernatants. The amount of product in the supernatant (aldosterone for CYP11B2 assay and cortisol for the CYP11B1 assay) was measured using HTRF-based assay kit (Aldosterone HTRF-CisBio #64ALDPEB, Cortisol HTRF-CisBio #63IDC002-CORT). IC50s for the inhibitor were determined by plotting the amount of product formed against the concentration of inhibitor using sigmoidal dose-response curve (variable slope) fit in GraphPad.

human CYP11B2 = human CYP11B2 (Homo sapiens (Human), UniProt P19099); test: V79-Human-CYP11B2 cell assay; format: cell-based; conditions: V79 cells stably expressing human CYP11B2; 125 nM 11-deoxycorticosterone substrate; aldosterone by HTRF
Method: as §1

Sequence of human CYP11B1 (P15538 25-503): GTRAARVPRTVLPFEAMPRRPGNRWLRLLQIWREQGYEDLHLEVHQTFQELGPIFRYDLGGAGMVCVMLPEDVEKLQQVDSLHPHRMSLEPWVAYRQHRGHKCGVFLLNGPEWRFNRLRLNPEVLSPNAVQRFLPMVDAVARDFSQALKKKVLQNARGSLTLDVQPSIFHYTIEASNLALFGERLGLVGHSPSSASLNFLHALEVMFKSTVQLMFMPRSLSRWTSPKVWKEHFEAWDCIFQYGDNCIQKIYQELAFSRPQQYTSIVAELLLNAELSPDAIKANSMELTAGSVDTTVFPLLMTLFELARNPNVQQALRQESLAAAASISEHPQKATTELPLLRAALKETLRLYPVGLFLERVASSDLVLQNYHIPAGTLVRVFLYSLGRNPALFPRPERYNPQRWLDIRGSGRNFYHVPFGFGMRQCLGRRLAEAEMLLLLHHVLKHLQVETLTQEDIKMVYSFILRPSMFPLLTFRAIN
Sequence of human CYP11B2 (P19099 25-503): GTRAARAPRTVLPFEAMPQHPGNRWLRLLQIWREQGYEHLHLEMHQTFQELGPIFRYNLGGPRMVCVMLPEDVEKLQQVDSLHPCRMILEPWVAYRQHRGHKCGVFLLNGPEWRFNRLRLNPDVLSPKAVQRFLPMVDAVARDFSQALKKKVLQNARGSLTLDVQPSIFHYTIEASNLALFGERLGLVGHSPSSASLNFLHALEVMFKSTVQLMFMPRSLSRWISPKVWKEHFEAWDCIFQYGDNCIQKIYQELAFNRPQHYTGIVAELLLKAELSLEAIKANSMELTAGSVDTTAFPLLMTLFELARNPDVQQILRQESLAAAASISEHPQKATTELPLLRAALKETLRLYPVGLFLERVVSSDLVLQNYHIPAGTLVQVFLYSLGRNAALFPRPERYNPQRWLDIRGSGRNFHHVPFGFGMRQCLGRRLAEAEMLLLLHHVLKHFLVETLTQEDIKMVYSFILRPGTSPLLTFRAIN

Structure (SMILES)	IC50 (human CYP11B1) [µM]	IC50 (human CYP11B2) [µM]
CC(C)(O)c1cncc(-c2nc3ccc(F)cn3n2)c1 [Example 12, 2-(5-(6-fluoro-[1,2,4]triazolo[1,5-a]pyridin-2-yl)pyridin-3-yl)propan-2-ol]	> 8.33	1.07
Clc1cccn2nc(-c3cncc4ccccc34)nc12 [Example 7, 4-(8-chloro-[1,2,4]triazolo[1,5-a]pyridin-2-yl)isoquinoline]	> 8.33	0.171
c1ccc2c(-c3nc4ccccn4n3)cncc2c1 [Example 5, 4-([1,2,4]triazolo[1,5-a]pyridin-2-yl)isoquinoline]	> 8.33	0.138

Other lines, results leading:

IC50 (human CYP11B1) [µM]	IC50 (human CYP11B2) [µM]	Structure (SMILES)
2.15	0.046	Fc1ccc2nc(-c3cncc4ccccc34)nn2c1 [Example 21, 4-(6-fluoro-[1,2,4]triazolo[1,5-a]pyridin-2-yl)isoquinoline]
> 8.33	0.126	Fc1cc(F)c2nc(-c3cncc4ccccc34)nn2c1 [Example 18, 4-(6,8-difluoro-[1,2,4]triazolo[1,5-a]pyridin-2-yl)isoquinoline]
1.08	0.022	Fc1ccn2nc(-c3cncc4ccccc34)nc2c1 [Example 20, 4-(7-fluoro-[1,2,4]triazolo[1,5-a]pyridin-2-yl)isoquinoline]
> 8.33	0.884	Cc1cccc2nc(-c3cncc(Br)c3)nn12 [Example 13, 2-(5-bromopyridin-3-yl)-5-methyl-[1,2,4] triazolo[1,5-a]pyridine]

Reference: patent US9567333B2, “Triazolopyridyl compounds as aldosterone synthase inhibitors” (Merck Sharp & Dohme Corp., priority 2011, dated 2017)
